Experimental data published in patent US20260166182A1, “CYANINE-BASED FLUOROPHORES” (The General Hospital Corporation, priority 2022, published 2026).
Entries after “also recorded” stand apart in the source; their conditions may differ. Values belong to the molecule of their own block, whether it stands above or below them.

Columns and labels:
[1] = Optical study in EtOH, DMSO, HEPES and PBS; assay type: physicochemical
Experimental: (§1) Optical Study, Photostability, Physicochemical Properties, and DFT Calculation: 1 mM stock solution in DMSO of the synthesized fluorophores was prepared before starting any spectral measurement. Optical properties for the synthesized fluorophores were measured in four different solvents (EtOH, DMSO, HEPES, and PBS). Absorbance spectra were measured in a Varian Cary 50 absorbance spectrophotometer (190-1100 nm). Fluorescence emission and photostability were measured and emission spectra were recorded on a Shimadzu RF-5301PC spectrofluorometer. Physicochemical properties (Log D, molecular mass, TPSA, H bond D/A, polarizability, molecular volume, and rotatable bonds) were predicted by ChemAxon (JChem plugin). Theoretical calculations of frontier molecular orbitals (FMOs) for the optimized structures of selected fluorophores were calculated based on DFT calculations at the B3LYP/6-311G(d,p) level.
In vivo success of a contrast agent can depend on the absorption and emission profiles, molar extinction coefficient, quantum yield, molecular brightness, physicochemical properties, and photochemical stability. Different types of polymethine bridges can have an impact on the structural geometry of the fluorophores and the absorption and emission profiles. Optical properties were measured in polar protic EtOH, polar aprotic DMSO, and two buffer solutions, phosphate-buffered saline (PBS, PH ˜7.4) and 4-(2-hydroxyethyl)-1-piperazine-ethanesulfonic acid (HEPES, PH ˜7.4). Organic solvents such as ethanol (EtOH) and dimethyl sulfoxide (DMSO) are often used in spectroscopic experiments to observe the absorption and emission maximum, whereas buffer solvents PBS and HEPES were used to mimic the biological environment, as these synthesized fluorophores are intended to be used in bioimaging. The absorbance profiles of these fluorophores were recorded at various concentrations (0.8, 1.6, 2.4, 3.2, 4.0 μM) and the absorbance values obtained were plotted against each of the concentrations. […] Fluorophores 18-21 refer to the labels in Example 4 and FIG. 7D.
The molar extinction coefficient is an intrinsic property of any fluorophore and can be important for high image resolution. […] These properties vary with the structure change and are difficult to predict beforehand. The optical properties of the synthesized fluorophores were measured in various media. All measurements were performed in 2 different organic solvents (EtOH and DMSO) and 2 different buffer (HEPES and PBS), and ICG was used as a reference (ΦICG=0.043).

[2] = In vivo biodistribution study of NIR fluorophores in CD-1 mice; set-up: species or system mouse; conditions: 25 nmol intravenous, 4 h post-injection
Experimental: In Vivo Biodistribution Study of NIR Fluorophores: Under the supervision of the MGH IACUC, animals were housed in an AAALAC-certified facility and studied according to institutional protocol #2016N000136. In preparation for injection, CD-1 mice (25-30 g, 6 weeks, Charles River Laboratories, Wilmington, MA) were anesthetized with isoflurane and oxygen. A 10 mM stock solution of NIR fluorophores was prepared in DMSO, and 25 nmol of each molecule was diluted in BSA-containing saline (5 wt/v %) for intraoperative imaging. After 4 h post-injection, mice were imaged. For each experiment, camera exposure time and image normalization were held constant.
Quantitative Analysis: The fluorescence and background intensity of a region of interest (ROI) over each tissue was quantified using ImageJ software (NIH, Bethesda, MD) version 1.45q. The signal-to-background ratio (SBR) was calculated as SBR=fluorescence/background, where background is the signal intensity of neighboring tissues such as muscle. All NIR fluorescence images for a particular fluorophore were normalized identically for all conditions of an experiment.

[3] = tested on: LLC and Raw264.7 cells; assay: In vitro inhibition study of SH1 cellular uptake; assay type: cell-based; conditions: 2 μM SH1, 15 min
Experimental: In vitro inhibition study: LLC and Raw264.7 cells were seeded and incubated at a density of 20,000 cells/plate in a 24-well plate. […] Cells were then incubated with 2 μM of SH1 at 37° C. for 15 min. […] After washing twice with HBSS buffer, the cells were imaged using a Nikon TE2000 epifluorescence microscope (TE2000U; Nikon) equipped with a 75-W xenon light source, NIR-compatible optics, and a NIR-compatible 4×, 10×, and 20× Plan Fluor objective lens (Nikon, Melville, NY) with a customized filter set.

[4] = tested on: lung carcinoma (LLC cell line); assay: NIR-II fluorescence imaging of subcutaneous LLC tumor-bearing C57BL/6 mice; assay type: in vivo, mouse
Source text: General NIR-II fluorescence imaging: A 640×512-pixel InGaAs camera (Ninox640, Raptor Photonics) and macro zoom lens (0-10×; Navitar Zoom 7000 with SWIR coating) along with 900, 1070, 1100, and 1200 nm long-pass (LP) filters from either Thorlab or Edmund optics were used to collect the NIR-II signal. InGaAs camera played a role as an open-air imaging system along with the support of the FLARE system. An 808 nm fiber-coupled diode laser ([…] at the sample) was used as an excitation source. Data acquisition was done using in-house developed software. […] Mice were imaged with intact skin using InGaAs camera. At least 3 mice were analyzed for each sample. Tumor-bearing mouse models: Animals were housed in an AAALAC-certified facility and were studied under the protocols approved by the MGH IACUC (2016N000136). Mice were maintained under anesthesia with isoflurane and oxygen during the experiment. To establish the various tumor-bearing mouse models including lung carcinoma, pancreatic ductal adenocarcinoma (PDAC), and triple negative breast adenocarcinoma, eight-week-old C57BL/6 mice (Taconic Farms, Germantown, NY) were subcutaneously injected with 2×10^5 LLC, Pan02, and E0771 cells suspended in DMEM/Matrigel (100 μL, 50 v/v %) in the flank region, respectively. Female C57BL/6 mice were used for the breast cancer (E0771) model, otherwise male mice were used. […] Statistical analysis: The fluorescence and background intensities of a region of interest over each tissue were quantified using customized imaging software and ImageJ v1.48 (National Institutes of Health, Bethesda, MD). The signal-to-background ratio (SBR) was calculated as SBR=fluorescence/background, where background was the fluorescence intensity of muscle. Data were reported as mean±s.e.m. with a minimum of three biological replicates. Student's t-test statistical analysis was performed to evaluate the significance of the experimental data. The differences among groups were determined using one-way ANOVA analysis to assess the statistical differences among more than two groups. […] The data was indicated with *p<0.05, ** p<0.01, *** p<0.001, and **** p<0.0001.

[5] = Photostability under xenon lamp irradiation; assay type: physicochemical; conditions: 2 h
Experimental: as §1
In consideration of theranostic (therapeutics and diagnostic) applications, NIR cyanine fluorophores are synthesized for fluorescence imaging, photodynamic therapy (PDT), photothermal therapy (PTT), optoacoustic imaging, and cancer immunotherapy. One of the approaches before using these fluorophores in those applications is to study their biodistribution and clearance pattern in vivo. […] The power density of 150 W is much higher than the required power for fluorescence imaging, considering that the time it takes for a fluorophore to clear from the background and accumulate in sufficient quantities in the targeted tissues is unknown. […] By considering this, an aliquot of the stock solution (1 mM in DMSO) was diluted in ethanol, and the fluorescence intensity was measured at the excitation wavelength same as their absorption maxima (nm). Photodegradation rates were measured every 20 min intervals for the selected fluorophores based on the % reduced fluorescence intensity starting from 100%. […] The data were collected in every 20 min intervals under continuous irradiation with a xenon lamp at 150 W for 2 h and presented based on the % reduced fluorescence intensity starting from 100%. […]

Structure (SMILES): CCCCN1/C(=C/C=C2\CCCC(/C=C/C3=[N+](CCCC)c4ccc(Br)cc4C3(C)C)=C2Cl)C(C)(C)c2cc(Br)ccc21.[I-] [fluorophore 20, 5-Bromo-2-((E)-2-((E)-3-(2-((E)-5-bromo-1-butyl-3,3-dimethylindolin-2-ylidene)ethylidene)-2-chlorocyclohex-1-en-1-yl)vinyl)-1-butyl-3,3-dimethyl-3H-indol-1-ium Iodide]
quantum yield ([1]; PBS): 0.01
tissue/organ signals [2]: high signals in the primary and secondary lymphoid tissues

Structure (SMILES): O=C(N/N=C/c1cc(O)c(O)cc1O)c1cc2ccccc2cc1O [dingo 4a]
effect of inhibitor pretreatment on SH1 cellular uptake [3]: significantly inhibited the internalization

Structure (SMILES): CCCCN1/C(=C/C=C/C=C/C=C/C2=[N+](CCCC)c3ccc(Cl)cc3C2(C)C)C(C)(C)c2cc(Cl)ccc21 [SH2, 1-butyl-2-((1E,3E,5E)-7-((E)-1-butyl-5-chloro-3,3-dimethylindolin-2-ylidene)hepta-1,3,5-trien-1-yl)-5-chloro-3,3-dimethyl-3H-indol-1-ium iodide]
NIR-II signal intensity of abdominal and dissected tumor image ([4]; NIR-II region): low signal intensity in NIR-II region

Structure (SMILES): CN(C)C(=O)CCSC(SCCC(=O)O)c1cccc(/C=C/c2ccc3ccc(Cl)cc3n2)c1 (stereo not drawn) [MK-571]
effect of inhibitor pretreatment on SH1 cellular uptake [3]: Neither bromosulphophthalein, cyclosporin A (both OATP inhibitors), D22 (OCT inhibitor), nor MK-571 (ABC transporter inhibitor) significantly inhibited SH1 uptake

Structure (SMILES): O=C1NC(=NS(=O)(=O)c2cccc3ccccc23)S/C1=C\c1ccc(Br)cc1 [Pitstop 2]
effect of inhibitor pretreatment on SH1 cellular uptake [3]: did not result in any appreciable change in cellular uptake

Structure (SMILES): O=C1OC(c2ccc(O)c(S(=O)(=O)O)c2)(c2ccc(O)c(S(=O)(=O)O)c2)c2c(Br)c(Br)c(Br)c(Br)c21 [bromosulphophthalein, bromsulphthalein]
effect of inhibitor pretreatment on SH1 cellular uptake [3]: Neither bromosulphophthalein, cyclosporin A (both OATP inhibitors), D22 (OCT inhibitor), nor MK-571 (ABC transporter inhibitor) significantly inhibited SH1 uptake

quantum yield ([1]; EtOH): 0.33
quantum yield ([1]; PBS): 0.01
molecular brightness ([1]; highest observed): 79,664 cm^−1 M^−1
Structure (SMILES): CCCCN1/C(=C/C=C2\CCCC(/C=C/C3=[N+](CCCC)c4ccccc4C3(C)C)=C2Cl)C(C)(C)c2ccccc21 [SH21, 1-butyl-2-((E)-2-((E)-3-(2-((E)-1-butyl-3,3-dimethylindolin-2-ylidene)ethylidene)-2-chlorocyclohex-1-en-1-yl)vinyl)-3,3-dimethyl-3H-indol-1-ium iodide]
circulation in the blood stream ([4]; 48 h post-injection): circulating in the blood stream at 48 h post injection
tissue/organ signals [2]: high background signals; also recorded: higher background tissue uptake

Structure (SMILES): CCN1/C(=C/c2ccc3ccccc3[n+]2CC)C=Cc2ccccc21.[I-] [D22, 1,1′-Diethyl-2,2′-cyanine iodide]
effect of inhibitor pretreatment on SH1 cellular uptake [3]: Neither bromosulphophthalein, cyclosporin A (both OATP inhibitors), D22 (OCT inhibitor), nor MK-571 (ABC transporter inhibitor) significantly inhibited SH1 uptake

photodegradation (% reduced fluorescence intensity) [5]: 7-12%
emission wavelength ([1]; DMSO): 817 nm
Structure (SMILES): CC1(C)C(/C=C/C2=C(Cl)C(=C/C=C3/N(CCCc4ccccc4)c4ccc(Cl)cc4C3(C)C)/CCC2)=[N+](CCCc2ccccc2)c2ccc(Cl)cc21.[Br-] [fluorophore 19, 5-Chloro-2-((E)-2-((E)-2-chloro-3-(2-((E)-5-chloro-3,3-dimethyl-1-(3-phenylpropyl)indolin-2-ylidene)ethylidene)cyclohex-1-en-1-yl)vinyl)-3,3-dimethyl-1-(3-phenylpropyl)-3H-indol-1-ium Bromide]
